# Experimental data as given in patent US20130096136A1, “Inhibitors of Protein Tyrosine Kinase Activity” (METHYLGENE INC., priority 2011, published 2013).
# How the values were obtained:
# [1] = molecular target: T1, VEGFR2 (KDR) (Homo sapiens, UniProt P35968); test: In Vitro Receptor Tyrosine Kinase Assay (VEGF receptor KDR), DELFIA; assay type: biochemical; conditions: recombinant GST-VEGFR2 806-1356, enzyme 5 nM, ATP 0.6 uM (2x Km), poly(Glu4,Tyr) substrate; read-out: VEGFR_IC50_UM
# T1 construct: made in house; host or cells: Sf9 cells (Spodoptera frugiperda), recombinant baculovirus
# T1 sequence (P35968 806-1356): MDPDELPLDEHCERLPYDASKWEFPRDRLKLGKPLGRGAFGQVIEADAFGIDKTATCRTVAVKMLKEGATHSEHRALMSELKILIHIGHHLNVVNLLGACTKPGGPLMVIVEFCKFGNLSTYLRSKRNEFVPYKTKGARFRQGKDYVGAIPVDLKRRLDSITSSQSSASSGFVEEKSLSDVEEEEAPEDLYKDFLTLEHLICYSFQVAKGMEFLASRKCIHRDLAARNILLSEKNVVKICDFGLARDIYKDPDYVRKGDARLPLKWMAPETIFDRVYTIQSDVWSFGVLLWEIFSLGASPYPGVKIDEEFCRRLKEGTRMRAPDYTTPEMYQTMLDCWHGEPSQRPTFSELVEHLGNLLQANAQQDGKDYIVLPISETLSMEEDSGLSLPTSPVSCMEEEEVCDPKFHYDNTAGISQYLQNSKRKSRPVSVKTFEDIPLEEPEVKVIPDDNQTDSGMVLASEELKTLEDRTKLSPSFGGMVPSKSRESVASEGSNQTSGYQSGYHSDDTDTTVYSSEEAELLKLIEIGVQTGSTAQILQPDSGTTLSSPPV
# From the text: This test measures the ability of compounds to inhibit the enzymatic activity of recombinant human VEGF receptor enzymatic activity.
# A 1.6-kb cDNA corresponding to the catalytic domain of VEGFR2 (KDR) (Genbank accession number AF035121 amino acid 806 to 1356) is cloned into the Pst I site of the pDEST20 Gateway vector (Invitrogen) for the production of a GST-tagged version of that enzyme. This construct is used to generate recombinant baculovirus using the Bac-to-Bac™ system according to the manufacturer's instructions (Invitrogen).
# The GST-VEGFR2806-1356 protein is expressed in Sf9 cells (Spodoptera frugiperda) upon infection with recombinant baculovirus construct. Briefly, Sf9 cells grown in suspension and maintained in serum-free medium (Sf900 II supplemented with gentamycin) at a cell density of about 2×10^6 cells/ml are infected with the above-mentioned viruses at a multiplicity of infection (MOI) of 0.1 during 72 hours at 27° C. with agitation at 120 rpm on a rotary shaker. Infected cells are harvested by centrifugation at 398 g for 15 min. Cell pellets are frozen at −80° C. until purification is performed.
# All steps described in cell extraction and purification are performed at 4° C. Frozen Sf9 cell pellets infected with the GST-VEGFR2806-1356 recombinant baculovirus are thawed and gently resuspended in Buffer A (PBS pH 7.3 supplemented with 1 μg/ml pepstatin, 2 μg/ml Aprotinin and leupeptin, 50 μg/ml PMSF, 50 μg/ml TLCK and 10 μM E64 and 0.5 mM DTT) using 3 ml of buffer per gram of cells. Suspension is Dounce homogenized and 1% Triton X-100 is added to the homogenate after which it is centrifuged at 22500 g, 30 min., 4° C. The supernatant (cell extract) is used as starting material for purification of GST-VEGFR2806-1356.
# The supernatant is loaded onto a GST-agarose column (Sigma) equilibrated with PBS pH 7.3. Following a four column volume (CV) wash with PBS pH 7.3+1% Triton X-100 and 4 CV wash with buffer B (50 mM Tris pH 8.0, 20% glycerol and 100 mM NaCl), bound proteins are step eluted with 5 CV of buffer B supplemented with 5 mM DTT and 15 mM glutathion. GST-VEGFR2806-1356 enriched fractions from this chromatography step are pooled based on U.V. trace i.e. fractions with high O.D.280. Final GST-VEGFR2806-1356 protein preparations concentrations are about 0.7 mg/ml with purity approximating 70%. Purified GST-VEGFR2806-1356 protein stocks are aliquoted and frozen at −80° C. prior to use in enzymatic assay.
# Inhibition of VEGFR/KDR is measured in a DELFIA™ assay (Perkin Elmer). The substrate poly(Glu4, Tyr) is immobilized onto black high-binding polystyrene 96-well plates. The coated plates are washed and stored at 4° C. During the assay, the enzyme is pre-incubated with inhibitor and Mg-ATP on ice in polypropylene 96-well plates for 4 minutes, and then transferred to the coated plates. The subsequent kinase reaction takes place at 30° C. for 10-30 minutes. ATP concentrations in the assay are 0.6 uM for VEGFR/KDR (2× the Km). Enzyme concentration is 5 nM. After incubation, the kinase reactions are quenched with EDTA and the plates are washed. Phosphorylated product is detected by incubation with Europium-labeled anti-phosphotyrosine MoAb. After washing the plates, bound MoAb is detected by time-resolved fluorescence in a Gemini SpectraMax reader (Molecular Devices). Compounds are evaluated over a range of concentrations, and IC50 values (concentration of compounds giving 50% inhibition of enzymatic activity) are determined.
# [2] = system: VEGF-dependent phospho ERK1/2 (T202/Y204) in HUVEC cells; test: VEGF-Dependent Erk Phosphorylation in HUVEC cells; assay type: cell-based; conditions: Homo sapiens, 1.5 h compound exposure, VEGF165 150 ng/ml, Western blot densitometry, read-out: P_ERK_IC50_UM
# From the text: HUVEC cells are purchased from Cambrex Bio Science Walkersville, Inc and cultured according to the vendor's instructions. The full-length coding sequence of VEGF165 is cloned using the Gateway Cloning Technology (Invitrogen) for baculovirus expression Sf9 cells. VEGF165 is purified from conditioned media using a NaCl gradient elution from a HiTrap heparin column (GE Healthcare Life Sciences) followed by an imidazole gradient elution from a HiTrap chelating column (GE Healthcare Life Sciences), then buffer stored in PBS supplemented with 0.1% BSA and filter sterilized
# Cells are seeded at 8000 cells/well of a 96 wells plate and grown for 48 hours. Cells are then grown overnight in serum and growth factor-free medium and exposed for 1.5 h to compounds dilutions. Following a 15 min incubation in medium, VEGF165 (150 ng/ml) cells are lysed in ice-cold lysis buffer (50 mM HEPES, pH 7.4, 150 mM NaCl, 1.5 mM MgCl2, 1% Triton X-100, 10% glycerol) containing 1 mM 4-(2 aminoethyl)benzenesulfonyl fluoride hydrochloride, 200 μM sodium orthovanadate, 1 mM sodium fluoride, 10 μg/mL leupeptin, 10 μg/mL aprotinin, 1 μg/mL pepstatin and 50 μg/mL Na-p-tosyl-L-lysine chloromethyl ketone hydrochloride and processed as Western blots to detect anti-phospho ERK1/2 (T202/Y204)(Cell Signaling Technologies). […]
Compound,IC50 [1] [nM],IC50 [2] [nM]
O=C1CCCN1Cc1ccc(-c2cc3nccc(Oc4ccc5oc(Nc6ccc(C(F)(F)F)cc6)nc5c4)c3s2)nc1 [Compound 52],6,
O=C1CCCN1Cc1ccc(-c2cc3nccc(Oc4ccc5oc(Nc6ccc(Cl)c(C(F)(F)F)c6)nc5c4)c3s2)nc1 [Compound 57],18,
O=C1CCCN1Cc1ccc(-c2cc3nccc(Oc4ccc5nc(Nc6ccc(Cl)cc6)oc5c4)c3s2)nc1 [Compound 51],278,
Clc1ccc(Nc2nc3cc(Oc4ccnc5cc(-c6ccc(CNc7cc[nH]n7)cn6)sc45)ccc3o2)cc1 [Compound 17],41.3,
O=C1CCCN1Cc1ccc(-c2cc3nccc(Oc4ccc5oc(Nc6ccccc6Cl)nc5c4)c3s2)nc1 [Compound 54],139,
COCCN(Cc1ccc(-c2cc3nccc(Oc4ccc5oc(Nc6ccc(Cl)cc6)nc5c4)c3s2)nc1)C(C)=O [Compound 62],4,
COc1ccc(Nc2nc3cc(Oc4ccnc5cc(-c6ccc(CN7CCCC7=O)cn6)sc45)ccc3o2)cc1 [Compound 53],3,
O=C1CCCN1Cc1ccc(-c2cc3nccc(Oc4ccc5oc(Nc6cccc(Cl)c6)nc5c4)c3s2)nc1 [Compound 49],2,
COCCN(Cc1ccc(-c2cc3nccc(Oc4ccc5oc(NC6CC6)nc5c4)c3s2)nc1)C(C)=O [Compound 63],1580,
Clc1ccc(Nc2nc3cc(Oc4ccnc5cc(-c6ccc(CNc7ccc(OCCN8CCOCC8)cc7)cn6)sc45)ccc3o2)cc1 [Compound 18],23,
COCCN(Cc1ccc(-c2cc3nccc(Oc4ccc5oc(Nc6ccccc6)nc5c4)c3s2)nc1)C(C)=O [Compound 64],47,
O=C1CCCN1Cc1ccc(-c2cc3nccc(Oc4ccc5nc(Nc6cccc(Cl)c6)oc5c4)c3s2)nc1 [Compound 50],434,
O=C1CCCN1Cc1ccc(-c2cc3nccc(Oc4ccc5oc(Nc6cccc(F)c6)nc5c4)c3s2)nc1 [Compound 56],29,
CN(C(=O)CO)C1CCN(Cc2ccc(-c3cc4nccc(Oc5ccc6oc(Nc7ccc(Cl)cc7)nc6c5)c4s3)nc2)CC1 [Compound 14],5,
CCNC(=O)N(C)C1CCN(Cc2ccc(-c3cc4nccc(Oc5ccc6oc(Nc7ccc(Cl)cc7)nc6c5)c4s3)nc2)CC1 [Compound 15],7,
CN(C)[C@H]1CCN(C(=O)c2cc3nccc(Oc4ccc5oc(Nc6ccccc6)nc5c4)c3s2)C1 [Compound 61],19,
"O=C(CO)NC1CCN(Cc2ccc(-c3cc4nccc(Oc5ccc6oc(Nc7ccc(Cl)cc7)nc6c5)c4s3)nc2)CC1 [Compound 12, N-(1-((6-(7-(2-(4-Chlorophenylamino)benzo[d]oxazol-5-yloxy)thieno[3,2-b]pyridin-2-yl)pyridin-3-yl)methyl)piperidin-4-yl)-2-hydroxyacetamide]",6,
"CCN(CC)CCNC(=O)c1ccc(NCc2ccc(-c3cc4nccc(Oc5ccc6oc(Nc7ccc(Cl)cc7)nc6c5)c4s3)nc2)cc1 [Compound 16, 4-((6-(7-(2-(4-Chlorophenylamino)benzo[d]oxazol-5-yloxy)thieno[3,2-b]pyridin-2-yl)pyridin-3-yl)methyl)amino-N-(2-(diethylamino)ethyl)benzamide]",16,
O=C1CCCN1Cc1ccc(-c2cc3nccc(Oc4ccc5oc(NC6CC6)nc5c4)c3s2)nc1 [Compound 47],1560,120
O=C1CCCN1Cc1ccc(-c2cc3nccc(Oc4ccc5oc(Nc6ccc(F)cc6)nc5c4)c3s2)nc1 [Compound 55],14,
CC(C)(C)OC(=O)N1CCN(Cc2ccc(-c3cc4nccc(Oc5ccc6oc(Nc7ccc(Cl)cc7)nc6c5)c4s3)nc2)CC1 [Compound 65],232,
Clc1ccc(Nc2nc3cc(Oc4ccnc5cc(-c6ccc(CNc7cccc(OCCN8CCOCC8)c7)cn6)sc45)ccc3o2)cc1 [Compound 19],12,
CCNC(=O)NC1CCN(Cc2ccc(-c3cc4nccc(Oc5ccc6oc(Nc7ccc(Cl)cc7)nc6c5)c4s3)nc2)CC1 [Compound 13],7,
"CCn1cc(CN(Cc2ccc(-c3cc4nccc(Oc5ccc6oc(Nc7ccc(Cl)cc7)nc6c5)c4s3)nc2)C(C)C)nn1 [Compound 21, N-(4-Chlorophenyl)-5-(2-(5-((((1-ethyl-1H-1,2,3-triazol-4-yl)methyl)(isopropyl)amino)methyl)pyridin-2-yl)thieno[3,2-b]pyridin-7-yloxy)benzo[d]oxazol-2-amine]",8,
O=C(c1cc2nccc(Oc3ccc4oc(Nc5ccccc5)nc4c3)c2s1)N1CCCCC1 [Compound 59],240,
"O=C1CCCN1Cc1ccc(-c2cc3nccc(Oc4ccc5oc(Nc6ccc(Cl)cc6)nc5c4)c3s2)nc1 [Compound 46, 1-((6-(7-(2-(4-Chlorophenylamino)benzo[d]oxazol-5-yloxy)thieno[3,2-b]pyridin-2-yl)pyridin-3-yl)methyl)pyrrolidin-2-one]",5,
